Data published in patent US9657014B2, “Substituted 1,6-naphthyridines” (Hoffmann-La Roche Inc., priority 2012, dated 2017).

System: human embryonic stem cell derived neural stem cells (NSCs)
Test: Neural stem cell proliferation assay (neurogenesis assay)
Format: cell-based
Details: Table 1, novel compounds, concentration at which 150% activity of control (100%) is reached, ATP levels (CellTiterGlo) after 4 days incubation; for EC (150% of control): Homo sapiens, Neural stem cell, 96 h
Outline: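 NSCs derived from human ES cells by dual SMAD inhibition, seeded on polyornithin/laminin, dosed 4 h later (11 points, 8 μM to 8 nM). After 4 days at 37° C, ATP luminescence read; response = compound/medium control ×100, EC150 = concentration giving 150% of control.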

Row | Structure (SMILES) | EC (150% of control) [µM] | EC150 [µM]
1 | O=C(NCC(F)(F)F)c1ccc2cncc(-c3cc(F)ccc3F)c2n1 [Example 128, 8-(2,5-Difluorophenyl)-N-(2,2,2-trifluoroethyl)-1,6-naphthyridine-2-carboxamide] | 0.13 | –
2 | CS(=O)(=O)CCNC(=O)c1ccc2cncc(-c3ccc(F)cc3F)c2n1 [Example 129, 8-(2,4-Difluorophenyl)-N-(2-(methylsulfonyl)ethyl)-1,6-naphthyridine-2-carboxamide] | 0.06 | –
3 | O=C(c1ccc2cncc(-c3ccc(Cl)cc3F)c2n1)N1CCC(O)C1 (stereo not shown) [Example 130, (8-(4-Chloro-2-fluorophenyl)-1,6-naphthyridin-2-yl)(3-hydroxypyrrolidin-1-yl)methanone] | 0.13 | –
4 | O=C(c1ccc2cncc(-c3ccc(Cl)c(F)c3)c2n1)N1CCC(O)C1 (stereo not shown) [Example 131, (8-(4-Chloro-3-fluorophenyl)-1,6-naphthyridin-2-yl)(3-hydroxypyrrolidin-1-yl)methanone] | 0.07 | –
5 | CS(=O)(=O)c1ccccc1CNC(=O)c1ccc2cncc(-c3ccc(Cl)cc3)c2n1 [Example 132, 8-(4-Chlorophenyl)-N-(2-(methylsulfonyl)benzyl)-1,6-naphthyridine-2-carboxamide] | 0.03 | –
6 | CS(=O)(=O)CCNC(=O)c1ccc2cncc(-c3ccccc3F)c2n1 [Example 133, 8-(2-Fluorophenyl)-N-(2-(methylsulfonyl)ethyl)-1,6-naphthyridine-2-carboxamide] | 0.23 | –
7 | CS(=O)(=O)CCNC(=O)c1ccc2cncc(-c3cccc(F)c3)c2n1 [Example 134, 8-(3-Fluorophenyl)-N-(2-(methylsulfonyl)ethyl)-1,6-naphthyridine-2-carboxamide] | 0.22 | –
8 | CS(=O)(=O)CCNC(=O)c1ccc2cncc(-c3ccc(F)cc3)c2n1 [Example 135, 8-(4-Fluorophenyl)-N-(2-(methylsulfonyl)ethyl)-1,6-naphthyridine-2-carboxamide] | 0.08 | –
9 | CC(C)Cc1cncc2ccc(C(N)=O)nc12 [Example 136, 8-Isobutyl-1,6-naphthyridine-2-carboxamide] | 0.04 | –
10 | CS(=O)(=O)CCNC(=O)c1ccc2cncc(-c3ccc(F)c(F)c3)c2n1 [Example 137, 8-(3,4-Difluorophenyl)-N-(2-(methylsulfonyl)ethyl)-1,6-naphthyridine-2-carboxamide] | 0.35 | –
11 | CS(=O)(=O)CCNC(=O)c1ccc2cncc(-c3cc(F)ccc3F)c2n1 [Example 138, 8-(2,5-Difluorophenyl)-N-(2-(methylsulfonyl)ethyl)-1,6-naphthyridine-2-carboxamide] | 0.26 | –
12 | CS(=O)(=O)CCNC(=O)c1ccc2cncc(-c3ccc(Cl)cc3F)c2n1 [Example 139, 8-(4-Chloro-2-fluorophenyl)-N-(2-(methylsulfonyl)ethyl)-1,6-naphthyridine-2-carboxamide] | 0.06 | –
13 | CN(C)c1cc(-c2cncc3ccc(C(N)=O)nc23)ccn1 [Example 140, 8-(2-(Dimethylamino)pyridin-4-yl)-1,6-naphthyridine-2-carboxamide] | 0.147 | –
14 | CC1(CNC(=O)c2ccc3cncc(-c4ccc(Cl)cc4)c3n2)CCC(=O)N1 (stereo not shown) [Example 141, 8-(4-Chlorophenyl)-N-((2-methyl-5-oxopyrrolidin-2-yl)methyl)-1,6-naphthyridine-2-carboxamide] | – | 0.01
15 | NC(=O)c1ccc2cncc(N3CCOCC3)c2n1 [Example 142, 8-Morpholino-1,6-naphthyridine-2-carboxamide] | 0.94 | –
16 | COc1cccc(-c2cncc3ccc(C(N)=O)nc23)c1 [Example 143, 8-(3-Methoxyphenyl)-1,6-naphthyridine-2-carboxamide] | 0.24 | –
17 | O=C(NCCO)c1ccc2cncc(-c3cccc(O)c3)c2n1 [Example 144, N-(2-Hydroxyethyl)-8-(3-hydroxyphenyl)-1,6-naphthyridine-2-carboxamide] | 0.16 | –
18 | CCCCCCNC(=O)c1ccc2cncc(-c3ccc(Cl)cc3)c2n1 [Example 145, 8-(4-Chlorophenyl)-N-hexyl-1,6-naphthyridine-2-carboxamide] | 0.21 | –
19 | NC(=O)c1ccc2cncc(C3=CCOCC3)c2n1 [Example 146, 8-(3,6-Dihydro-2H-pyran-4-yl)-1,6-naphthyridine-2-carboxamide] | 0.21 | –
20 | CCCCCCNC(=O)c1ccc(-c2cncc3ccc(C(N)=O)nc23)cc1 [Example 147, 8-(4-(Hexylcarbamoyl)phenyl)-1,6-naphthyridine-2-carboxamide] | 0.09 | –
21 | CCCCCCNC(=O)Cc1cccc(-c2cncc3ccc(C(N)=O)nc23)c1 [Example 148, 8-(3-(2-(Hexylamino)-2-oxoethyl)phenyl)-1,6-naphthyridine-2-carboxamide] | 0.18 | –
22 | CCCCCCC(=O)NCc1ccc(-c2cncc3ccc(C(N)=O)nc23)cc1 [Example 149, 8-(4-(Heptanamidomethyl)phenyl)-1,6-naphthyridine-2-carboxamide] | 0.07 | –

Row | Structure (SMILES) | EC (150% of control) [µM] | EC150 [µM]
23 | CCCCCCNC(=O)Cc1ccc(-c2cncc3ccc(C(N)=O)nc23)cc1 [Example 150, 8-(4-(2-(Hexylamino)-2-oxoethyl)phenyl)-1,6-naphthyridine-2-carboxamide] | 0.04 | –
24 | CCCCCCC(=O)NCc1cccc(-c2cncc3ccc(C(N)=O)nc23)c1 [Example 151, 8-(3-(Heptanamidomethyl)phenyl)-1,6-naphthyridine-2-carboxamide] | 0.03 | –
25 | Cc1cc2cncc(-c3ccc(Cl)cc3)c2nc1C(N)=O [Example 152, 8-(4-Chlorophenyl)-3-methyl-1,6-naphthyridine-2-carboxamide] | 0.34 | –
26 | Cc1cc2cncc(-c3ccc(F)cc3)c2nc1C(N)=O [Example 153, 8-(4-Fluorophenyl)-3-methyl-1,6-naphthyridine-2-carboxamide] | 0.79 | –
27 | Cc1cc2cncc(-c3ccc(OC(F)(F)F)cc3)c2nc1C(N)=O [Example 154, 3-Methyl-8-(4-(trifluoromethoxy)phenyl)-1,6-naphthyridine-2-carboxamide] | 2.19 | –
28 | Cc1cc2cncc(-c3ccc(C#N)cc3)c2nc1C(N)=O [Example 155, 8-(4-Cyanophenyl)-3-methyl-1,6-naphthyridine-2-carboxamide] | 0.7 | –
29 | NCc1ccc(-c2cncc3ccc(C(N)=O)nc23)cc1 [Example 156, 8-(4-(Aminomethyl)phenyl)-1,6-naphthyridine-2-carboxamide] | 0.31 | –
30 | Cc1cc2cncc(-c3ccc(C(F)(F)F)cc3)c2nc1C(N)=O [Example 157, 3-Methyl-8-[4-(trifluoromethyl)phenyl]-1,6-naphthyridine-2-carboxamide] | 0.88 | –
31 | O=C(NCCO)c1ccc2cncc(-c3ccc(Cl)cc3)c2n1 [Example 158, 8-(4-Chlorophenyl)-N-(2-hydroxyethyl)-1,6-naphthyridine-2-carboxamide] | 0.09 | –
32 | NC(=O)c1ccc2cncc(-c3ccc(Cl)nc3)c2n1 [Example 159, 8-(6-Chloropyridin-3-yl)-1,6-naphthyridine-2-carboxamide] | 0.18 | –
33 | NC(=O)c1ccc2cncc(-c3ccc(Cl)cc3Cl)c2n1 [Example 160, 8-(2,4-Dichlorophenyl)-1,6-naphthyridine-2-carboxamide] | 0.1 | –
34 | CC(NC(=O)c1ccc2cncc(-c3ccc(C(F)(F)F)cc3)c2n1)C(C)(C)O (stereo not shown) [Example 161, N-(3-Hydroxy-3-methylbutan-2-yl)-8-(4-(trifluoromethyl)phenyl)-1,6-naphthyridine-2-carboxamide] | 0.06 | –
35 | CC(NC(=O)c1ccc2cncc(-c3ccc(Cl)cc3)c2n1)C(C)(C)O (stereo not shown) [Example 162, 8-(4-Chlorophenyl)-N-(3-hydroxy-3-methylbutan-2-yl)-1,6-naphthyridine-2-carboxamide] | 0.06 | –
36 | CC(NC(=O)c1ccc2cncc(-c3ccc(OCC(F)(F)F)cc3)c2n1)C(C)(C)O (stereo not shown) [Example 163, N-(3-Hydroxy-3-methylbutan-2-yl)-8-(4-(2,2,2-trifluoroethoxyl)phenyl)-1,6-naphthyridine-2-carboxamide] | 0.07 | –
37 | CC(NC(=O)c1ccc2cncc(-c3cccc(OCC(F)(F)F)c3)c2n1)C(C)(C)O (stereo not shown) [Example 164, N-(3-Hydroxy-3-methylbutan-2-yl)-8-(3-(2,2,2-trifluoroethoxyl)phenyl)-1,6-naphthyridine-2-carboxamide] | 0.76 | –
38 | NC(=O)c1ccc2cncc(-c3ccc(OCC(F)(F)F)cc3)c2n1 [Example 165, 8-(4-(2,2,2-Trifluoroethoxyl)phenyl)-1,6-naphthyridine-2-carboxamide] | 0.01 | –
39 | NC(=O)c1ccc2cncc(-c3cccc(OCC(F)(F)F)c3)c2n1 [Example 166, 8-(3-(2,2,2-Trifluoroethoxyl)phenyl)-1,6-naphthyridine-2-carboxamide] | 0.06 | –
40 | NC(=O)c1ccc2cncc(-c3cccc(Cl)c3)c2n1 [Example 167, 8-(3-Chlorophenyl)-1,6-naphthyridine-2-carboxamide] | 0.09 | –
41 | NC(=O)c1ccc2cncc(-c3ccccc3Cl)c2n1 [Example 168, 8-(2-Chlorophenyl)-1,6-naphthyridine-2-carboxamide] | 0.15 | –
42 | NC(=O)c1ccc2cncc(-c3ccc(Cl)c(F)c3)c2n1 [Example 169, 8-(4-Chloro-3-fluorophenyl)-1,6-naphthyridine-2-carboxamide] | 0.03 | –
43 | CC(NC(=O)c1ccc2cncc(-c3ccc(Cl)c(F)c3)c2n1)C(C)(C)O (stereo not shown) [Example 170, 8-(4-Chloro-3-fluorophenyl)-N-(3-hydroxy-3-methylbutan-2-yl)-1,6-naphthyridine-2-carboxamide] | 0.25 | –
